Source: patent US20260355184A1, “SMALL MOLECULE DEGRADERS OF HIV-1 TAT PROTEIN” (priority 2022, published 2026)
pIC50: −log10 of the molar value. Like-named read-outs stand apart in the source and are kept apart here.

Tests used:
[1] = Cytotoxicity assay, Cell-Titer-Glo, HeLa-CD4-LTR-LacZ; conditions: human, hela-cd4-ltr-lacz cells, Infectivity CC50, HeLa-CD4-LTR-LacZ
Procedure: (§1) Next, the activity of these leads against HIV infection was evaluated using the reporter cell line HeLa-CD4-LTR-LacZ, which stably expresses the β-galactosidase (β-Gal) gene under the control of the HIV 5′ LTR. The HIV NL4.3 strain was used for these studies and β-Gal activity was measured 72 hrs post infection (FIG. 3A). Cytotoxicity assays using Cell-Titer-Glo were performed in parallel to assess cell viability (FIG. 3A). […] Their anti-HIV activity was further assessed in acute replication of Jurkat T cells with the NL4.3 strain (FIG. 3A). […] These OM10.1 cells contain a single integrated wild-type provirus, while ACH-2 cells contain a single integrated provirus with a TAR mutation C37T, defective Tat-TAR feedback loop (FIG. 3B).

HIV NL4.3 strain = assay: HIV infectivity assay, reporter cell line HeLa-CD4-LTR-LacZ, β-Gal activity (Tat protein inhibition); type: cell-based, HIV-1 (NL4.3); conditions: for pIC50: Human immunodeficiency virus 1, read-out: Infectivity IC50, HeLa-CD4-LTR-LacZ
Procedure: as §1

SMILES: Cc1cc(C(=O)NCCCN2CCCC2=O)nn1-c1ccccc1 [GB-14]
- CC50 ([1]; analogs of TT-44881 (Table 1)): > 100 µM
- pIC50 (HIV NL4.3 strain; analogs of TT-44881 (Table 1)): < 4.00

SMILES: COCCOc1ccc(C(F)(F)F)cc1NC(=O)Cn1cccc(F)c1=O [compound 46762]
- CC50 ([1]; analogs of TT-44863 (Table 2)): > 100 µM
- pIC50 (HIV NL4.3 strain; analogs of TT-44863 (Table 2)): < 4.00

SMILES: CC(CNC(=O)CCn1cncn1)(c1ccccc1)c1ccccc1 [Z221503086]
- pIC50 (HIV NL4.3 strain; analogs of TT-44856 (Table 3)): < 4.00

SMILES: O=C(NCCCN1CCCC1=O)c1nn(-c2ccccc2)c2ccccc12 [compound 46715]
- CC50 ([1]; analogs of TT-44881 (Table 1)): > 100 µM
- pIC50 (HIV NL4.3 strain; analogs of TT-44881 (Table 1)): 4.00 to 4.30

SMILES: O=C(NCCCn1ccnc1)C1c2ccccc2Oc2ccccc21 [3-61]
- CC50 ([1]; analogs of TT-44856 (Table 3)): > 100 µM
- pIC50 (HIV NL4.3 strain; analogs of TT-44856 (Table 3)): < 4.00

SMILES: COCCOc1ccccc1NC(=O)Cn1cccc(Cl)c1=O [compound 46631]
- CC50 ([1]; analogs of TT-44863 (Table 2)): > 100 µM
- pIC50 (HIV NL4.3 strain; analogs of TT-44863 (Table 2)): < 4.00

SMILES: O=C(NCCCn1ccnc1)c1ccc(-n2cc(Br)cn2)cc1 [3-40]
- CC50 ([1]; analogs of TT-44856 (Table 3)): > 100 µM
- pIC50 (HIV NL4.3 strain; analogs of TT-44856 (Table 3)): < 4.00

SMILES: COc1cc(C(F)(F)F)ccc1NC(=O)Cn1cccc(Cl)c1=O [compound 47171]
- CC50 ([1]; analogs of TT-44863 (Table 2)): > 100 µM
- pIC50 (HIV NL4.3 strain; analogs of TT-44863 (Table 2)): < 4.00

SMILES: Cc1ccc(CCC(=O)NCCCn2ccnc2)cc1 [Z196426172]
- pIC50 (HIV NL4.3 strain; analogs of TT-44856 (Table 3)): < 4.00

SMILES: COc1ccc(C(F)(F)F)cc1NC(=O)C(C)n1cc(C(F)(F)F)cc(-c2ccccc2)c1=O (stereo not drawn)
- CC50 ([1]; analogs of TT-44863 (Table 2)): > 100 µM
- pIC50 (HIV NL4.3 strain; analogs of TT-44863 (Table 2)): < 4.00

SMILES: O=C(NCCCN1CCCC1=O)c1c(-c2ccccc2)[nH]c2ccccc2c1=O [compound 46825]
- CC50 ([1]; analogs of TT-44881 (Table 1)): > 100 µM
- pIC50 (HIV NL4.3 strain; analogs of TT-44881 (Table 1)): < 4.00

SMILES: CC(C)(C)OC(=O)COCCOCCOc1ccc(C(F)(F)F)cc1NC(=O)Cn1cc(C(F)(F)F)cc(Cl)c1=O [compound 47]
- CC50 ([1]; analogs of TT-44863 (Table 2)): > 100 µM
- pIC50 (HIV NL4.3 strain; analogs of TT-44863 (Table 2)): 4.00 to 4.30

SMILES: O=C(NCCCN1CCCC1=O)c1nn(-c2ccccc2)cc1F [compound 47010]
- CC50 ([1]; analogs of TT-44881 (Table 1)): > 100 µM
- pIC50 (HIV NL4.3 strain; analogs of TT-44881 (Table 1)): < 4.00

SMILES: CN1CCN(CCOc2ccc(C(F)(F)F)cc2NC(=O)Cn2cc(C(F)(F)F)cc(Cl)c2=O)CC1 [compound 52]
- CC50 ([1]; analogs of TT-44863 (Table 2)): 25 to 50 µM
- pIC50 (HIV NL4.3 strain; analogs of TT-44863 (Table 2)): 4.70 to 5.00

SMILES: O=C(NCCCN1CCCC1=O)c1ccn(-c2ccccc2)n1 [compound 45732]
- CC50 ([1]; analogs of TT-44881 (Table 1)): > 100 µM
- pIC50 (HIV NL4.3 strain; analogs of TT-44881 (Table 1)): < 4.00

SMILES: CC(C(=O)NCCCN1CCNCC1)(c1ccccc1)c1ccccc1 [3-55]
- CC50 ([1]; analogs of TT-44856 (Table 3)): > 100 µM
- pIC50 (HIV NL4.3 strain; analogs of TT-44856 (Table 3)): < 4.00

SMILES: O=C(c1nn(-c2ccccc2)c2c1CCC2)N1CCCC1 [compound 46607]
- CC50 ([1]; analogs of TT-44881 (Table 1)): > 100 µM
- pIC50 (HIV NL4.3 strain; analogs of TT-44881 (Table 1)): < 4.00

SMILES: COc1ccc(Cl)cc1NC(=O)Cn1cc(C(F)(F)F)cc(Cl)c1=O [TT-46603]
- CC50 ([1]; analogs of TT-44863 (Table 2)): 50 to 100 µM
- decrease of potency vs TT-44863 (HIV NL4.3 strain; HeLa-CD4 cell NL4.3 infection assays): ~ 5 fold
- pIC50 (HIV NL4.3 strain; analogs of TT-44863 (Table 2)): 4.52 to 4.70

SMILES: Cc1cc(NCCCN2CCCC2=O)n2nc(C)nc2n1 [compound 46930]
- CC50 ([1]; analogs of TT-44881 (Table 1)): > 100 µM
- pIC50 (HIV NL4.3 strain; analogs of TT-44881 (Table 1)): < 4.00

SMILES: O=C1N(CCCn2ccnc2)CCC1(c1ccccc1)c1ccccc1 [3-73]
- CC50 ([1]; analogs of TT-44856 (Table 3)): > 100 µM
- pIC50 (HIV NL4.3 strain; analogs of TT-44856 (Table 3)): 4.30 to 5.00

SMILES: COCCOc1ccc(C(F)(F)F)cc1NC(=O)Cn1cccc(Cl)c1=O [compound 46704]
- CC50 ([1]; analogs of TT-44863 (Table 2)): > 100 µM
- pIC50 (HIV NL4.3 strain; analogs of TT-44863 (Table 2)): < 4.00

SMILES: Cc1cc(C(=O)N(C)CCCN2CCCC2=O)nn1-c1ccccc1 [GB-15]
- CC50 ([1]; analogs of TT-44881 (Table 1)): > 100 µM
- pIC50 (HIV NL4.3 strain; analogs of TT-44881 (Table 1)): < 4.00

SMILES: CCCC(C(=O)NCCCn1c(C)nc2ccccc21)(c1ccccc1)c1ccccc1 [3-66]
- CC50 ([1]; analogs of TT-44856 (Table 3)): 20 to 50 µM
- pIC50 (HIV NL4.3 strain; analogs of TT-44856 (Table 3)): 4.30 to 4.70

SMILES: O=C(NCCCn1ccnc1)c1cc(Cl)nc2ccccc12 [3-39]
- CC50 ([1]; analogs of TT-44856 (Table 3)): > 100 µM
- pIC50 (HIV NL4.3 strain; analogs of TT-44856 (Table 3)): < 4.00

SMILES: CC(CNC(=O)CCn1cnc2ccccc21)(c1ccccc1)c1ccccc1 [Z119886832]
- pIC50 (HIV NL4.3 strain; analogs of TT-44856 (Table 3)): < 4.00

SMILES: O=C(O)c1ccc(CNC(=O)c2cn(-c3ccccc3)c3ccccc23)cc1 [compound 41784]
- CC50 ([1]; analogs of TT-44881 (Table 1)): > 100 µM
- pIC50 (HIV NL4.3 strain; analogs of TT-44881 (Table 1)): < 4.00

SMILES: CCC(=O)NC(C(=O)NCCCn1ccnc1)c1ccccc1 (stereo not drawn) [Z1207330250]
- pIC50 (HIV NL4.3 strain; analogs of TT-44856 (Table 3)): < 4.00

SMILES: COc1ccc(C(F)(F)F)cc1CNC(=O)Cn1cc(C)cc(Cl)c1=O [compound 46957]
- CC50 ([1]; analogs of TT-44863 (Table 2)): > 50 µM
- pIC50 (HIV NL4.3 strain; analogs of TT-44863 (Table 2)): < 4.30

SMILES: O=C(Cc1cccc(C(F)(F)F)c1)NCCCn1ccnc1 [Z30217436]
- pIC50 (HIV NL4.3 strain; analogs of TT-44856 (Table 3)): < 4.00

SMILES: O=C(NCCCN1CCCC1=O)c1nn(-c2ccccc2)c2c1CCCCC2 [GB-03]
- CC50 ([1]; analogs of TT-44881 (Table 1)): > 100 µM
- pIC50 (HIV NL4.3 strain; analogs of TT-44881 (Table 1)): < 4.00

SMILES: COc1ccc(NC(=O)Cn2cc(C(F)(F)F)cc(Cl)c2=O)cc1C(F)(F)F [compound 44]
- CC50 ([1]; analogs of TT-44863 (Table 2)): > 100 µM
- pIC50 (HIV NL4.3 strain; analogs of TT-44863 (Table 2)): < 4.00

SMILES: CCOc1ccccc1NC(=O)Cn1cc(C(F)(F)F)cc(Cl)c1=O [compound 46604]
- CC50 ([1]; analogs of TT-44863 (Table 2)): > 100 µM
- pIC50 (HIV NL4.3 strain; analogs of TT-44863 (Table 2)): < 4.00

SMILES: O=C(NCCCN1CCCC1=O)c1ccc(=O)n(-c2ccccc2)c1 [compound 47155]
- CC50 ([1]; analogs of TT-44881 (Table 1)): > 100 µM
- pIC50 (HIV NL4.3 strain; analogs of TT-44881 (Table 1)): < 4.00

SMILES: NS(=O)(=O)c1ccc(CCNC(=O)c2cn(-c3ccccc3)c3ccccc23)cc1 [compound 41799]
- CC50 ([1]; analogs of TT-44881 (Table 1)): > 100 µM
- pIC50 (HIV NL4.3 strain; analogs of TT-44881 (Table 1)): 4.70 to 5.30

SMILES: O=C(NCCCN1CCCC1=O)c1nn(-c2ccccc2)c2ccc(F)cc12 [compound 46820]
- CC50 ([1]; analogs of TT-44881 (Table 1)): > 100 µM
- pIC50 (HIV NL4.3 strain; analogs of TT-44881 (Table 1)): 4.00 to 4.30

SMILES: O=C(NCCCN1CCCC1=O)c1nn(-c2ccccc2)c2c1CCC(O)C2 (stereo not drawn) [GB-12]
- CC50 ([1]; analogs of TT-44881 (Table 1)): > 100 µM
- pIC50 (HIV NL4.3 strain; analogs of TT-44881 (Table 1)): 5.00 to 6.00

SMILES: CCCC(=O)NCc1cn(CCCNC(=O)C(C)(c2ccccc2)c2ccccc2)cn1 [3-62]
- CC50 ([1]; analogs of TT-44856 (Table 3)): > 100 µM
- pIC50 (HIV NL4.3 strain; analogs of TT-44856 (Table 3)): < 4.00

SMILES: O=C(NCCCn1cnc2ccccc21)C(c1ccccc1)(c1ccccc1)c1ccccc1 [3-68]
- CC50 ([1]; analogs of TT-44856 (Table 3)): 20 to 50 µM
- pIC50 (HIV NL4.3 strain; analogs of TT-44856 (Table 3)): 4.52 to 5.00
